Measured values as given in patent US6653081B2, “Methods for monitoring antiretroviral therapy and guiding therapeutic decision in the treatment of HIV/AIDS” (ViroLogic, Inc., priority 2000, dated 2003).

Tests used:
Type in all cases: cell-based, HIV
RTV-011073 = experiment: Phenotypic susceptibility assay, RTV-011073; conditions: patient 011073; for decrease in susceptibility: V241S, K103N, I135T
Source text: (§1) The resistance test vectors containing a functional luciferase gene cassette were constructed and host cells were transfected with the resistance test vector DNA. The resistant test vectors contained patient-derived reverse transcriptase and protease sequences that were either susceptible or resistant to the antiretroviral agents, such as nucleoside reverse transcriptase inhibitors, (NRTIs) non-nucleoside reverse transcriptase inhibitors […] protease inhibitors. The resistance test vector viral particles produced by transfecting the resistance test vector DNA into host cells, either in the presence or absence of PRIs, were used to infect target host cells grown either in the absence of NRTIs or NNRTIs, or in the presence of increasing concentrations of the drug. The amount of luciferase activity produced in infected target host cells in the presence of varying concentrations of drug was compared to the amount of luciferase produced in infected target host cells in the absence of drug. “Drug resistance” was measured as the amount of drug required to inhibit by 50% the luciferase activity detected in the absence of drug (inhibitory concentration 50%, IC50). The IC50 values were determined by plotting percent drug inhibition vs. log10 drug concentration. Stimulation of viral replication was measured as the percent increase in luciferase activity detected when infection occurs in the presence of drug as compared to in the absence of drug.
(§2) Host cells were seeded in 10-cm-diameter dishes and were transfected several days after plating with resistance test vector plasmid DNA and the envelope expression vector. Transfections were performed using a calcium-phosphate precipitation procedure. The cell culture media containing the DNA precipitate was replaced with fresh medium, from one to 24 hours, after transfection. Cell culture media containing resistance test vector viral particles was harvested one to four days after transfection and was passed through a […] filter before being used to infect target host cells, or being stored at −80° C. HIV capsid protein (p24) levels in the harvested cell culture media were determined by an EIA method as described by the manufacturer (SAIC; Frederick, Md.). Before infection, target cells (293 and 293/T) were plated in cell culture media. Control infections were performed using cell culture media from mock transfections (no DNA) or transfections containing the resistance test vector plasmid DNA without the envelope expression plasmid. One to three or more days after infection, the media was removed and cell lysis buffer (Promega) was added to each well. Cell lysates were assayed for luciferase activity (FIG. 3). The inhibitory effect of the drug was determined using the following equation:
(§3) % luciferase inhibition=1−(RLUluc[drug]÷RLUluc)×100
(§4) where RLUluc [drug] is the Relative Light Unit of luciferase activity in infected cells in the presence of drug, and RLUluc is the Relative Light Unit of luciferase activity in infected cells in the absence of drug. IC50values were obtained from the sigmoidal curves that were generated from the data by plotting the percent inhibition of luciferase activity vs. the log10 drug concentration. The percent luciferase stimulation is the negative of the % inhibition calculated using the formula above.
(§5) A resistance test vector was constructed as described in Example 1 from a virus sample obtained from patient 011073. The prior and current treatment regimens are unknown. Isolation of viral RNA and RT/PCR was used to generate a patient derived segment (PDS) that comprised viral sequences coding for all of PR and aa 1-313 of RT. The PDS was inserted into an indicator gene viral vector to generate a resistance test vector designated RTV-011073. RTV-011073 was then tested in a phenotypic assay to determine accurately and quantitatively the level of susceptibility to a panel of anti-retroviral drugs. […]

RTV-011073/241V/277T = experiment: Phenotypic susceptibility assay, RTV-011073/241V/277T; conditions: RTV-011073 with 241 and 277 reverted
Source text: The resistance test vectors containing a functional luciferase gene cassette were constructed and host cells were transfected with the resistance test vector DNA. The resistant test vectors contained patient-derived reverse transcriptase and protease sequences that were either susceptible or resistant to the antiretroviral agents, such as nucleoside reverse transcriptase inhibitors, (NRTIs) non-nucleoside reverse transcriptase inhibitors […] protease inhibitors. The resistance test vector viral particles produced by transfecting the resistance test vector DNA into host cells, either in the presence or absence of PRIs, were used to infect target host cells grown either in the absence of NRTIs or NNRTIs, or in the presence of increasing concentrations of the drug. The amount of luciferase activity produced in infected target host cells in the presence of varying concentrations of drug was compared to the amount of luciferase produced in infected target host cells in the absence of drug. […] The IC50 values were determined by plotting percent drug inhibition vs. log10 drug concentration. Stimulation of viral replication was measured as the percent increase in luciferase activity detected when infection occurs in the presence of drug as compared to in the absence of drug.
Host cells were seeded in 10-cm-diameter dishes and were transfected several days after plating with resistance test vector plasmid DNA and the envelope expression vector. […] HIV capsid protein (p24) levels in the harvested cell culture media were determined by an EIA method as described by the manufacturer (SAIC; Frederick, Md.). […] The inhibitory effect of the drug was determined using the following equation: […]
where RLUluc [drug] is the Relative Light Unit of luciferase activity in infected cells in the presence of drug, and RLUluc is the Relative Light Unit of luciferase activity in infected cells in the absence of drug. […] The percent luciferase stimulation is the negative of the % inhibition calculated using the formula above. […]

RTV-014397 = experiment: Phenotypic susceptibility assay, RTV-014397; conditions: patient 014397; for decrease in susceptibility: 245 and 103
Source text: as §1, §2, §3, §4
as §5, with “patient 014397.” for “patient 011073.”, “PDS were” for “PDS was”, “designated RTV-014397. RTV-014397” for “designated RTV-011073. RTV-011073”

[1] = test system: RTV-1033, RTV-008973, RTV-757, RTV-008980 and RTV-1080; experiment: Phenotypic susceptibility assay, patient 1033 RTV pools; conditions: range over five RTV pools of one patient
Source text: as §1, §2, §3, §4
Resistance test vectors were constructed as described in Example 1 from virus samples obtained from an individual patient at thirteen separate time points over a 2½-year period. This patient had been previously treated with two NRTIs (zidovudine and lamivudine) AZT, 3TC (NRTIS), and a PRI (indinavir) for a period of approximately 2 years at the time the first (97-309) and second (98-754) samples were obtained. The patient began taking a new anti-viral regimen including an NRTI (stavudine), an NNRTI (nevirapine), and two PRIs (nelfinavir and saquinavir) at the time the third sample (98-1032) was obtained. […]

[2] = test system: RTV-1033-3/106V/227F/286T; experiment: Phenotypic susceptibility assay, RTV-1033-3/106V/227F/286T; conditions: RTV-1033-3 with V106A, F227L and T286A reverted
Source text: as §1, §2, §3, §4
(§6) A resistance test vector containing all of the mutations present in RTV-1033-3 except for V106A, F227L and T286A (RTV-1033-3/106V/227F/286T) was constructed and tested using the phenotypic assay described earlier. The results were compared to those determined using the parent RTV-1033-3. We determined the pattern of phenotypic susceptibility to the NNRTIs, delavirdine, nevirapine and efavirenz, in the reverted vector, RTV-1033-3/106V/227F/286T.

RTV-309-3/184M = experiment: Phenotypic susceptibility assay, RTV-309-3/184M; conditions: RTV-309-3 with M184V reverted
Source text: as §1, §2, §3, §4
as §6, with “RTV-309-3” for “RTV-1033-3”, “the M184V (RTV-309-3/184M)” for “V106A, F227L and T286A (RTV-1033-3/106V/227F/286T)”, “RTV-309-3.” for “RTV-1033-3.”, “RTV-309-3/184M.” for “RTV-1033-3/106V/227F/286T.”

Row | SMILES | drug-dependent stimulation of viral replication (RTV-011073) [%] | decrease in susceptibility (RTV-011073) [fold] | reductions in susceptibility compared to wild type control RTV (RTV-011073/241V/277T) [fold] | drug-dependent stimulation of viral replication (RTV-014397) [%] | decrease in susceptibility (RTV-014397) [fold] | drug-dependent stimulation of viral replication [1] [%] | reductions in susceptibility [1] [fold] | drug-dependent stimulation of viral replication [2] [%] | reductions in susceptibility compared to wild type control RTV [2] [fold] | drug-dependent stimulation of viral replication (RTV-309-3/184M) [%] | reduction in susceptibility compared to wild type control RTV (RTV-309-3/184M) [fold]
1 | O=C1Nc2ccc(Cl)cc2[C@@](C#CC2CC2)(C(F)(F)F)O1 [efavirenz] | ~80 | > 450 | 54 | ~70 | > 450 | 30 to 170 | 16 to 300 | ~50 | 5 | ~60 | 5
2 | CC(C)Nc1cccnc1N1CCN(C(=O)c2cc3cc(NS(C)(=O)=O)ccc3[nH]2)CC1 [delavirdine] | ~90 | > 250 | 50 | ~100 | > 250 | 20 to 180 | 3 to 18 | ~60 | 3 | ~50 | 4
3 | Cc1ccnc2c1NC(=O)c1cccnc1N2C1CC1 [nevirapine] | ~70 | > 600 | 126 | ~100 | > 600 | 40 to 250 | > 600 | ~70 | 6 | ~80 | 9
